Assay results from ChEMBL document CHEMBL1201862, “PubChem BioAssay data set” (2004).
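These data come from cells grown in 96-well plates and exposed to compound for 48 hours at five concentrations. The concentration for 50% growth inhibition is given as GI50.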 Activity calls are given as the source filed them. No stated cut-off is given here; in the data, active = GI50 up to about 1.1 µM and inactive = higher.

Legend:
Experiment in all cases: NCI-60 cell line screen, 48 h
SNB-75 = tested on: SNB-75
KM-20L2 = tested on: KM-20L2
RPMI-8226 = tested on: RPMI-8226
SF-539 = tested on: SF-539
DMS-273 = tested on: DMS-273
NCI-H23 = tested on: NCI-H23
SNB-19 = tested on: SNB-19
A549 = tested on: A549
UO-31 = tested on: UO-31
COLO 205 = tested on: COLO 205
DMS-114 = tested on: DMS-114
SK-MEL-5 = tested on: SK-MEL-5
LOX IMVI = tested on: LOX IMVI
OVCAR-3 = tested on: OVCAR-3
OVCAR-5 = tested on: OVCAR-5
HCC 2998 = tested on: HCC 2998
XF498 = tested on: XF498
SW-620 = tested on: SW-620
A498 = tested on: A498
ACHN = tested on: ACHN
SF-295 = tested on: SF-295
CCRF-CEM = tested on: CCRF-CEM
MOLT-4 = tested on: MOLT-4
NCI-H522 = tested on: NCI-H522
HL-60 = tested on: HL-60
Malme-3M = tested on: Malme-3M
IGROV-1 = tested on: IGROV-1
RXF 393 = tested on: RXF 393
HOP-92 = tested on: HOP-92
OVCAR-8 = tested on: OVCAR-8
SK-MEL-28 = tested on: SK-MEL-28
HOP-18 = tested on: HOP-18
K562 = tested on: K562
KM12 = tested on: KM12
U-251 = tested on: U-251
SK-MEL-2 = tested on: SK-MEL-2
SNB-78 = tested on: SNB-78
HOP-62 = tested on: HOP-62
SK-OV-3 = tested on: SK-OV-3
HT-29 = tested on: HT-29
EKVX = tested on: EKVX
DLD-1 = tested on: DLD-1
HCT-116 = tested on: HCT-116
NCI-H460 = tested on: NCI-H460
LXFL 529 = tested on: LXFL 529
TK-10 = tested on: TK-10
786-0 = tested on: 786-0
UACC-257 = tested on: UACC-257
SF-268 = tested on: SF-268
M14 = tested on: M14
UACC-62 = tested on: UACC-62
HCT-15 = tested on: HCT-15
SR = tested on: SR
NCI-H226 = tested on: NCI-H226
DU-145 = tested on: DU-145
CAKI-1 = tested on: CAKI-1
OVCAR-4 = tested on: OVCAR-4
SN12C = tested on: SN12C

Measured: GI50

COc1ccc2c3c1O[C@]1(C)C34CCN(C)C(C2)C42C=C[C@@]1(OC)c1c(O)ccc(O)c12
inactive: SNB-75 > 100 µM | KM-20L2 > 100 µM | RPMI-8226 > 100 µM | SF-539 > 100 µM | DMS-273 > 100 µM | NCI-H23 > 100 µM | SNB-19 > 100 µM | A549 > 100 µM | UO-31 > 100 µM | COLO 205 > 100 µM | DMS-114 > 100 µM | SK-MEL-5 > 100 µM | LOX IMVI > 100 µM | OVCAR-3 > 100 µM | OVCAR-5 > 100 µM | HCC 2998 > 100 µM | XF498 > 100 µM | SW-620 > 100 µM | A498 > 100 µM | ACHN > 100 µM | SF-295 > 100 µM | CCRF-CEM > 100 µM | MOLT-4 > 100 µM | NCI-H522 > 100 µM | HL-60 17.8 µM | Malme-3M 64.7 µM | IGROV-1 > 100 µM | RXF 393 > 100 µM | HOP-92 59.3 µM | OVCAR-8 > 100 µM | SK-MEL-28 > 100 µM | HOP-18 > 100 µM | K562 > 100 µM | KM12 > 100 µM | U-251 > 100 µM | SK-MEL-2 > 100 µM | SNB-78 61.8 µM | HOP-62 > 100 µM | SK-OV-3 > 100 µM | HT-29 > 100 µM | EKVX > 100 µM | DLD-1 > 100 µM | HCT-116 > 100 µM | NCI-H460 > 100 µM | LXFL 529 > 100 µM | TK-10 > 100 µM | 786-0 95.7 µM | UACC-257 > 100 µM | SF-268 > 100 µM

COc1cccc(/C=C2\N=C(Cl)OC2=O)c1O
inactive: SNB-75 30.5 µM | KM-20L2 > 100 µM | RPMI-8226 > 73.5 µM | M14 > 100 µM | UACC-62 > 100 µM | SF-539 > 100 µM | DMS-273 > 100 µM | NCI-H23 > 100 µM | SNB-19 > 100 µM | A549 > 100 µM | UO-31 > 100 µM | COLO 205 > 100 µM | DMS-114 > 100 µM | SK-MEL-5 > 100 µM | LOX IMVI > 100 µM | OVCAR-3 > 100 µM | OVCAR-5 > 100 µM | HCC 2998 > 100 µM | XF498 > 100 µM | SR > 88.9 µM | SW-620 > 66.4 µM | A498 > 100 µM | NCI-H226 > 100 µM | DU-145 > 100 µM | ACHN > 100 µM | SF-295 > 100 µM | CCRF-CEM > 55.3 µM | MOLT-4 > 100 µM | NCI-H522 > 100 µM | HL-60 > 100 µM | Malme-3M > 100 µM | IGROV-1 > 100 µM | RXF 393 > 100 µM | HOP-92 > 100 µM | OVCAR-8 > 100 µM | SK-MEL-28 > 100 µM | HOP-18 > 100 µM | K562 > 100 µM | CAKI-1 > 100 µM | KM12 > 100 µM | U-251 > 85.9 µM | SK-MEL-2 > 100 µM | SNB-78 > 100 µM | HOP-62 > 100 µM | SK-OV-3 > 38.7 µM | HT-29 > 100 µM | EKVX > 100 µM | OVCAR-4 > 100 µM | DLD-1 > 76.7 µM | HCT-116 > 100 µM | NCI-H460 > 100 µM | LXFL 529 > 100 µM | SN12C > 100 µM | TK-10 > 100 µM | 786-0 > 94.6 µM | UACC-257 > 100 µM | SF-268 > 80 µM
> 100 µM: HCT-15
